# Measurements taken from patent publication US10124008B2, “Use of inhibitors of acid sphingomyelinase to treat acquired and inherited retinal degenerations” (Wisconsin Alumni Research Foundation, priority 2014, dated 2018).
# “Also recorded” adds a separate entry of the source.
# What was measured:
# [1] = tested on: acetylated tubulin in polarized primary RPE; assay: Immunofluorescence staining of acetylated and tyrosinated tubulin; assay type: cell-based, porcine; settings: for acetylated tubulin in RPE with A2E: inhibitors 10 μM for 3 h, 48 h after A2E treatment
# Method: ALEXAFLUOR secondary antibodies were used at 1:500 and rhodamine-phalloidin (Cytoskeleton, PHDR1) at 1:200. Filters were mounted under coverslips on glass slides under […] (Vector labs), sealed and visualized with Andor Revolution XD spinning disk confocal microscope using a 60×1.4 NA oil objective with identical exposures and gains for each antibody. Acetylated tubulin-labeled stable microtubules (≥5 μm in length) after nocodazole treatment were analyzed manually in the Surpass mode of Imaris (Bitplane).
# (§1) We performed two initial screens: first, we compared the ability of functional inhibitors (fluoxetine and amitriptyline) with that of the lone structural ASMase inhibitor zoledronic acid in decreasing acetylated tubulin. Here, polarized RPE monolayers with or without A2E were treated with one of the three inhibitors (10 μM, 3 h). Desipramine as a positive control. At the end of the incubation period, cells were fixed and stained for acetylated tubulin, imaged and the amount of acetylated tubulin in the cells was quantified. Second, we evaluated three additional drugs (sertraline, astemizole and fexofenadine) for their abilities to increase autophagy in the RPE. Cells with or without bisretinoids were transfected with mRFP-GFP-LC3, starved to induce autophagy, treated with drugs and imaged as in FIG. 9D.
# primary RPE cells = assay: Live imaging of tandem fluorescent mRFP-GFP-LC3 (tfLC3), autophagic flux; assay type: cell-based, porcine; settings: for autophagic flux / autophagosome-lysosome fusion (tfLC3 EGFP:mRFP): RPE with A2E, 3 h drug incubation (TO901317 1 μM 20 h); for autophagy after mTOR inhibition: polarized primary RPE, Torin 1 50 nM and Torin 2 1.5 μM, 2 h
# Method: RPE cells were transfected with EGFP-LC3 or tandem fluorescent mRFP-GFP-LC3 (Addgene) using the AMAXA NUCLEOFECTOR II (Lonza). Approximately 1.5 million cells and 5 μg of plasmid DNA were used for each transfection. Cells were plated either on serum-coated glass-bottom dishes (Mattek) or […] filters at confluence.
# Andor IQ2 software was used for image acquisition and Imaris x64 (Bitplane) for image analysis. […] Trafficking data was collected from three separate transfections for a total of at least 12-30 movies captured for treatment. During image acquisition care was taken to maintain the same laser power, exposure and electron-multiplying gain settings. […] After background subtraction (using the background subtraction algorithm and identical automatic threshold for all images) and smoothing (Gaussian algorithm with identical threshold settings for all images), Spots and Tracks algorithms were used to identify vesicles and follow them through time and cell-space to obtain total track length and track displacement.
# We used tandem fluorescent mRFP-GFP-LC3 (tfLC3) to monitor autophagy in primary RPE cells in real time.
# as §1
# [2] = tested on: LC3B-II and p62 in primary RPE monolayers; assay: Immunoblotting of LC3B-II and p62 in polarized primary RPE monolayers; assay type: cell-based, porcine
# Method: RPE harvested from mouse eyecups were sonicated in lysis buffer with protease inhibitors for 10 min. Primary RPE on TRANSWELL filters were harvested and lysed with NE-PER nuclear and cytoplasmic extraction reagents (Thermo Scientific #78833) according to the manufacturer's recommendation. Protein concentrations were measured with DC assay (BioRad). […] Proteins were then transferred onto nitrocellulose membrane using IBLOT dry transfer system (INVITROGEN), blocked in 5% milk in TBS-T for 1 hour before incubating in primary antibody overnight at 4° C. Membranes were probed with antibodies to LC3B (1:3000, Novus NB600-1384 for pig and 1:500, Sigma L7543 for mouse), p62/SQSTM1 (1:1000, ARP03-GP62-C) and actin (1:5000, Santa Cruz) followed by horseradish peroxidase-conjugated secondary antibodies. Immunoblots were visualized by ECL substrate (Thermo Scientific) and quantified using Image Studio (LI-COR). […] Other drugs used were the mTOR inhibitors Torin 1 and Torin 2 (50 nM and 1.5 μM, respectively, for 2 h, TOCRIS), the vacuolar ATPase inhibitor bafilomycin A1 (100 nM for 2 h, EMD Millipore), the LXRα agonist TO901317 (1 μM for 20 h, Cayman Chemicals), the HDAC6 inhibitor trichostatin A (TSA, 500 nM, 16 h, Sigma) and the ASMase inhibitor desipramine (10 μM for 3 h, Sigma). To depolymerize MTs, cells were treated with 33 μM nocodazole for 30 minutes, followed by cold-treatment (4° C.) for 30 minutes (Kreitzer et al., 2003). At the concentrations and exposure times used, none of these drugs caused alterations in RPE cell morphology or physiology (monitored by TER measurements, ZO-1 and organelle marker staining). […] Conversion of LC3B-I to its lipidated form (LC3B-II) is an indicator of autophagosome biogenesis and p62 levels are a measure of autophagic flux (Klionsky et al., 2012).
# [3] = tested on: EGFP-LC3-labeled autophagosomes in primary RPE; assay: Live imaging of EGFP-LC3 autophagosome trafficking (spinning disk, Boolean gating); assay type: cell-based, porcine
# Method: RPE cells were transfected with EGFP-LC3 or tandem fluorescent mRFP-GFP-LC3 (Addgene) using the AMAXA NUCLEOFECTOR II (Lonza). Approximately 1.5 million cells and 5 μg of plasmid DNA were used for each transfection. Cells were plated either on serum-coated glass-bottom dishes (Mattek) or TRANSWELL filters at confluence. Live imaging of autophagosome traffic and autophagic flux were performed on the Revolution XD spinning disk microscopy system (Andor) equipped with the Yokogawa CSU-X1 confocal spinning disk head, Nikon Eclipse Ti inverted microscope surrounded by an Okolab cage incubator, iXon x3 897 EM-CCD camera, Andor laser combiner with four solid state lasers at 405, 488, 561, and 640 nm and corresponding band-pass filter sets (Sutter), and ASI motorized stage with piezo-Z for rapid Z-stack acquisition. Andor IQ2 software was used for image acquisition and Imaris x64 (Bitplane) for image analysis. For live imaging, cells were serum starved for 2 h to induce autophagy and rapid z-stacks were acquired using the 100×1.49 NA Apo TIRF objective (Nikon) for ˜50 frames at 37° C. Trafficking data was collected from three separate transfections for a total of at least 12-30 movies captured for treatment. During image acquisition care was taken to maintain the same laser power, exposure and electron-multiplying gain settings. Trafficking analysis was carried out using the Spots and Tracks modules of the Imaris software (Liu et al., 2010). After background subtraction (using the background subtraction algorithm and identical automatic threshold for all images) and smoothing (Gaussian algorithm with identical threshold settings for all images), Spots and Tracks algorithms were used to identify vesicles and follow them through time and cell-space to obtain total track length and track displacement. […] Data were analyzed using either a two-tailed t-test or one-way ANOVA followed by Bonferroni or Dunnett's post-tests (GraphPad PRISM). Unless otherwise stated, data are presented as Mean±S.E.M. of ≥3 independent experiments, with 3 to 4 replicates per condition per experiment. […] Regions were defined by: minimum or maximum track length, minimum or maximum displacement and a slope of 0.5 (displacement divided by length). Tracks with slope <0.5 were taken as less straight (region 2) than those with slope of >0.5 (region 3). Tracks within each region are represented as a percent of total number of tracks in Tables 1 and 2. One-way ANOVA or t-tests were used to compare regions between treatment groups. […] To examine the efficiency of autophagosome transport, Spots and Tracks algorithms in Imaris were used to calculate how far each autophagosome traveled (track displacement length) as a function of the movement required to travel that distance (total track length) (Liu et al., 2010).
# [4] = Table 4, potential issues; cited from earlier work
# [5] = A2E-laden RPE after mTOR inhibition, TO901317 1 μM 20 h, desipramine 10 μM 3 h
# [6] = percent of total EGFP-LC3 tracks, serum-starved RPE, TSA 500 nM
compound,measurement,setting,value
CN(C)CCC=C1c2ccccc2CCc2ccccc21 [amitriptyline],acetylated tubulin in RPE with A2E,[1],as effective as desipramine in decreasing acetylated tubulin; also recorded: decreased acetylated tubulin levels in RPE with A2E back to control levels
CC(C)(C(=O)O)c1ccc(C(O)CCCN2CCC(C(O)(c3ccccc3)c3ccccc3)CC2)cc1 (stereo not shown) [Fexofenadine],autophagic flux / autophagosome-lysosome fusion (tfLC3 EGFP:mRFP),primary RPE cells,"not as effective as astemizole, sertraline or desipramine in increasing autophagic flux"
CCN(CC)CCO[C@H]1CC[C@@]2(C)C(=CC[C@@H]3[C@@H]2CC[C@]2(C)C(=O)CC[C@@H]32)C1 [U18666A],acetylated tubulin,"[1]; agent alone versus control RPE, U18666A 1 μM, 16 h",Acetylated tubulin also increased
Nc1ccc(-c2ccc3ncc4ccc(=O)n(-c5cccc(C(F)(F)F)c5)c4c3c2)cn1 [Torin 2],autophagy after mTOR inhibition,primary RPE cells,autophagy was upregulated
CN[C@H]1CC[C@@H](c2ccc(Cl)c(Cl)c2)c2ccccc21 [sertraline],autophagic flux / autophagosome-lysosome fusion (tfLC3 EGFP:mRFP),primary RPE cells,completely reversed the autophagic block induced by A2E
COc1ccc(CCN2CCC(Nc3nc4ccccc4n3Cc3ccc(F)cc3)CC2)cc1 [astemizole],autophagic flux / autophagosome-lysosome fusion (tfLC3 EGFP:mRFP),primary RPE cells,completely reversed the autophagic block induced by A2E
O=S(=O)(c1ccccc1)N(CC(F)(F)F)c1ccc(C(O)(C(F)(F)F)C(F)(F)F)cc1 [TO901317],LC3B-II levels / autophagosome biogenesis (immunoblot),[2]; [5],increased autophagosome biogenesis
same,p62 levels / autophagic flux (immunoblot),[2]; [5],significantly lesser than corresponding condition without TO901317
same,autophagic flux / autophagosome-lysosome fusion (tfLC3 EGFP:mRFP),primary RPE cells,restored autophagic flux in cells with A2E and decreased EGFP fluorescence back to control levels
"CC(/C=C/C(=O)NO)=C\[C@@H](C)C(=O)c1ccc(N(C)C)cc1 [TSA, trichostatin A]","autophagosome trafficking (long-range, directed movements)",[3]; agent alone versus control RPE,replicated the autophagosome trafficking defects seen in cells with A2E
same,"Region 1 (R1) (D <2 μm, L <5 μm)",[3]; [6],88.01%
same,"Region 3 (R3) (L >5 μm, Slope >0.5 μm)",[3]; [6],1.64%
CCC(=O)N1CCN(c2ccc(-n3c(=O)ccc4cnc5ccc(-c6cnc7ccccc7c6)cc5c43)cc2C(F)(F)F)CC1 [Torin 1],autophagy after mTOR inhibition,primary RPE cells,autophagy was upregulated
CNCCC(Oc1ccc(C(F)(F)F)cc1)c1ccccc1 (stereo not shown) [fluoxetine],acetylated tubulin in RPE with A2E,[1],as effective as desipramine in decreasing acetylated tubulin; also recorded: decreased acetylated tubulin levels in RPE with A2E back to control levels
CO/C1=C\C(C)=C\[C@@H](C)[C@@H](O)[C@@H](C)C/C(C)=C/C=C/[C@H](OC)[C@@H]([C@@H](C)[C@@H](O)[C@H](C)[C@@]2(O)C[C@@H](O)[C@H](C)[C@@H](C(C)C)O2)OC1=O [Bafilomycin A1],LC3B-II levels (immunoblot),"[2]; after mTOR inhibition, agent versus control RPE",increased LC3B-II after mTOR inhibition in control cells but not cells exposed to A2E
O=P(O)(O)C(O)(Cn1ccnc1)P(=O)(O)O [zoledronic acid],oral bioavailability,[4],<4% oral
